Results from patent US7691392B2 (Kosan Biosciences Incorporated, priority 2005, dated 2010).

What was measured:
[1] = Plasma pharmacokinetics of 17-AAG and 17-AG in the open-label dose escalating trial in MM patients
Experimental: The total number of PK samples collected was approximately 110 mL of whole blood (7-8 tablespoons). If a patient experienced a potentially drug-related SAE, additional PK samples were collected. Blood was drawn from the contralateral arm to the infusion site using an indwelling catheter to avoid multiple needle sticks. […] The blood tube was inverted several times, and the tube placed in wet ice immediately pending separation of the plasma. If a catheter was used for blood collection, the fluid in the catheter was completely withdrawn prior to each sample collection and discarded. Plasma samples were kept on wet ice during collection and centrifugation. Plasma samples were split into two cryovials prior to freezing at −70° C.
The PK analysis was performed as follows. […] PK parameters were calculated on plasma concentration time data by non-compartmental analysis using Kinetica version 4.3 software (Innaphase, Champs sur Marne, France). AUC was calculated by the mixed log-linear rule: the linear rule was applied to the range where concentration was ascending and the log-linear rule was applied to the range where the concentration was descending. AUClast is the area from t=0 to tlast, the last sampling time. AUCextra is the extrapolated area from AUClast to infinity and AUCtotal=AUClast+AUCextra and is also named AUC0-∞ area under the concentration-time curve from time zero to infinity. The terminal rate constant λz was calculated on at least three points on the elimination curve with values greater than the lower limit of quantitation. […] Table 5 lists the areas, Cmax, and half-life for the metabolite 17-AG (mean±one standard deviation). […] There was no dose dependency for half-life, clearance or distributive volumes for these dose administrations.

[2] = Cellular assays, relative potency of 17-AAG and 17-AG; format: cell-based; details: 17-AAG versus 17-AG
[3] = patients treated at 56 mg/m^2 17-AAG; cited from earlier work

CO[C@H]1/C=C\C=C(/C)C(=O)NC2=CC(=O)C(N)=C(C[C@@H](C)C[C@H](OC)[C@H](O)[C@@H](C)/C=C(\C)[C@@H]1OC(N)=O)C2=O [17-AG, 17-aminogeldanamycin]
time post infusion from which plasma level of 17-AG exceeded the parent drug ([1]; 220 mg/m^2 cohort): approximately 7 hours
change of AUCtotal between Day 1 and Day 11 ([1]; 17 patients, first vs fourth infusion): no pattern of increase or decrease
dose proportionality of Cmax ([1]; 150-340 mg/m^2 17-AAG): did not increased in a dose proportional manner
time post infusion from which plasma level of 17-AG exceeded the parent drug ([1]; 150 and 275 mg/m^2 cohorts): approximately 3 hours
half-life ([1]; human, plasma, intravenous): 4.6 to 5.4 h
relative potency in cellular assays [2]: equipotent
Vz [3]: 203 L/m^2
clearance [3]: 30.8 L/h/m^2
